Source: US20220168430A1, “THERAPEUTIC METHODS FOR TREATING HEPATITIS B” (priority 2019, published 2022)
Where two headings read alike, the source gives them in different places.

Tests used:
HBV DNA [1] = test: Serum HBV DNA in pHBV1.3 hydrodynamic injection mouse model of HBV (Example 12); type: in vivo, NOD.CB17-Prkdc scid/J mice; HBV genotype D, serotype ayw; conditions: once daily oral from Day 0: RNA destabilizer 10 mg/kg, encapsidation inhibitor 100 mg/kg, nucleos(t)ide analog 0.4 mg/kg, group mean ± SEM, n=7 or 8, from negative control
Protocol: (§1) On Day −7, 10 micrograms of the plasmid pHBV1.3 (constructed based on details provided in Guidotti, L., et al., Journal of Virology, 1995, 69(10): 6158-6169) was administered to NOD.CB 17-Prkdc^scid/J mice via hydrodynamic injection (HDI; rapid 1.6 mL injection into the tail vein). […] As readouts of the anti-HBV effect of the treatments, serum HBV DNA and serum HBsAg were assessed. Serum HBV DNA concentration in mice was measured using a quantitative PCR assay following total DNA extraction using previously published primers and probe sequences (Tanaka, Y., et al., Journal of Medical Virology, 2004, 72: 223-229). Serum HBsAg concentration in mice was measured using a commercially available ELISA kit (HBsAg EIA 3.0 480 Test Kit, Bio-Rad).
(§2) Animals were treated with RNA destabilizer as follows: Starting on Day 0, a 10 mg/kg dosage of RNA destabilizer was administered orally to animals on a once-daily frequency for a total of seven doses across the duration of the study. Animals were treated with encapsidation inhibitor as follows: Starting on Day 0, a 100 mg/kg dosage of encapsidation inhibitor was administered orally to animals on a once-daily frequency for a total of seven doses across the duration of the study. Animals were treated with nucleos(t)ide analog as follows: Starting on Day 0, a 0.4 mg/kg dosage of nucleos(t)ide analog was administered orally to animals on a once-daily frequency for a total of seven doses across the duration of the study. The RNA destabilizer, the encapsidation inhibitor, and nucleos(t)ide analog were each dissolved in the same co-solvent formulation for administration and negative control animals were administered the co-solvent formulation alone. To calculate treatment-specific effects, the treated groups are compared against negative control (vehicle treated) animals.
(§3) The effect of these treatments was determined by collecting blood on Days −1 (prior to study's treatment phase), 4, and 7 and analyzing it for serum HBV DNA and HBsAg content.

HBsAg [2] = test: Serum HBsAg in pHBV1.3 hydrodynamic injection mouse model of HBV (Example 12); type: in vivo, NOD.CB17-Prkdc scid/J mice; HBV genotype D, serotype ayw; conditions: for Serum HBsAg log reduction: once daily oral from Day 0: RNA destabilizer 10 mg/kg, encapsidation inhibitor 100 mg/kg, nucleos(t)ide analog 0.4 mg/kg, group mean ± SEM, n=7 or 8, from negative control
Protocol: as §1, §2, §3

HBV DNA [3] = type: in vivo, C57BL/6 mice; HBV serotype Ayw, genotype D; conditions: group mean ± SEM, n=6
Protocol: (§4) Prior to treatment start, 1×10^11 viral genomes of an adeno-associated virus (AAV) vector carrying a 1.3-fold overlength copy of an HBV genome (serotype Ayw, genotype D) was administered to C57BL/6 mice via intravenous injection. Introduction of this viral vector results in the expression of HBV DNA and HBV surface antigen (HBsAg) amongst other HBV products. Serum HBV DNA levels in mice was measured using a quantitative polymerase chain reaction (QPCR) assay, HBsAg in serum and liver of mice was measured using an enzyme-linked immunosorbent assay (ELISA), and anti-HBsAg antibodies were measured using ELISA.
(§5) Treatment effects on serum HBV DNA were determined by collecting a small amount of blood on Days 0 (pre-treatment) and 14, as well as from terminal blood collections at Day 42. Treatment effects on HBsAg in serum and liver were determined from terminal sample collections at Day 42.
(§6) Any individual animal samples measured to fall below assay lower limit of quantitation (LLOQ) were reported as the LLOQ value.

HBsAg [4] = test: Liver HBsAg by ELISA in AAV-HBV mouse model (Example 18); type: in vivo, C57BL/6 mice; HBV serotype Ayw, genotype D; conditions: Study Day 42; siRNA 3 mg/kg s.c. Days 0 and 28, encapsidation inhibitor 100 mg/kg and/or TDF 1 mg/kg oral daily Days 0-41; group mean ± SEM, n=6
Protocol: as §4, §5, §6

HBV genome = test: IC 50 of HBV siRNA duplexes (Table A); parameters: species or system Hepatitis B virus; conditions: siRNA duplex

Compound: Cn1cnc(COC(=O)N[C@H]2CCc3c(C(=O)Nc4ccc(F)c(Cl)c4)ccc(F)c32)n1 [Encapsidation Inhibitor]
- Serum HBV DNA log reduction (HBV DNA [1]; Day 4): 0.94 ± 0.07 log
- Serum HBV DNA log reduction (HBV DNA [1]; Day 7): 0.86 ± 0.12 log
- Serum HBsAg log reduction (HBsAg [2]; Day 4): −0.12 ± 0.03 log
- Serum HBsAg log reduction (HBsAg [2]; Day 7): 0.07 ± 0.04 log
- Serum HBV DNA (HBV DNA [3]; Day 0 (pre-treatment)): 4.45 ± 0.13 log10 copies/microliter
- Serum HBV DNA (HBV DNA [3]; Day 14, siRNA 3 mg/kg s.c. Days 0 and 28, encapsidation inhibitor 100 mg/kg and/or TDF 1 mg/kg oral daily): 3.89 ± 0.07 log10 copies/microliter
- Serum HBV DNA (HBV DNA [3]; Day 42, siRNA 3 mg/kg s.c. Days 0 and 28, encapsidation inhibitor 100 mg/kg and/or TDF 1 mg/kg oral daily Days 0-41): 4.49 ± 0.07 log10 copies/microliter
- Liver HBsAg (HBsAg [4]): 2.03 ± 0.03 log10 IU/mg liver protein

Compound: COCCCOc1cc2c(nc1OC)-c1cc(=O)c(C(=O)O)cn1[C@H](C(C)C)C2 [RNA destabilizer]
- Serum HBV DNA log reduction (HBV DNA [1]; Day 4): 0.48 ± 0.11 log
- Serum HBV DNA log reduction (HBV DNA [1]; Day 7): 0.48 ± 0.10 log
- Serum HBsAg log reduction (HBsAg [2]; Day 4): 0.75 ± 0.03 log
- Serum HBsAg log reduction (HBsAg [2]; Day 7): 0.86 ± 0.04 log
- effect on viral protein production (serum HBsAg biomarker) (HBsAg [2]; mouse, once-daily oral, seven doses): reductive effect on viral protein production

Compound: 11m: "double stranded siRNA molecules selected from the group consisting of 1m, 2m, 3m ... 15m" (sense GCCGAUCCAUACUGCGGAAUU; antisense UUCGGCUAGGUAUGACGCCUU; chemistry not fully specified; one strand is listed 3' to 5') [Compound 11m]
- IC50 (HBV genome): 0.31 nM

Compound: 3m: "double stranded siRNA molecules selected from the group consisting of 1m, 2m, 3m ... 15m" (sense CCGUGUGCACUUCGCUUCAUU; antisense UUGGCACACGUGAAGCGAAGU; chemistry not fully specified) [Compound 3m]
- IC50 (HBV genome): 0.06 nM

Compound: 1m: "double stranded siRNA molecules selected from the group consisting of 1m, 2m, 3m ... 15m" (sense AGGUAUGUUGCCCGUUUGUUU; antisense UUUCCAUACAACGGGCAAACA; chemistry not fully specified; one strand is listed 3' to 5') [Compound 1m]
- IC50 (HBV genome): 1.43 nM

Compound: 8m: "double stranded siRNA molecules selected from the group consisting of 1m, 2m, 3m ... 15m" (sense GCUCAGUUUACUAGUGCCAUU; antisense UUCGAGUCAAAUGAUCACGGU; chemistry not fully specified; one strand is listed 3' to 5') [Compound 8m]
- IC50 (HBV genome): 0.24 nM
